Structures are written as SMILES.

In general, half-life refers to how long it takes for the measured level to halve. One may read the MRT as the average time that molecules of a dose stay in the body. Broadly, the Cmax is the peak of the concentration-time curve.

The nature of series [1]: Pharmacokinetics Assay in rats, intragastric administration, LC/MS/MS. The series is classed as in vivo. The conditions noted are these: both sexes, rat, plasma, po, SD rats, 25 mg/kg; for Vd/F: read-out: Apparent Distribution Volume Vz/F; for CL/F: read-out: Clearance CL/F (converted); for half-life: read-out: Half-Life t½ (converted); for Cmax: read-out: Plasma Conc. Cmax. As to the method:
The pharmacokinetic behavior of the compounds of the present invention was studied and evaluated in rats. 8 healthy adult SD rats, male and female in half, were purchased from SINO-BRITSH SIPPR/BK LAB. ANIMAL LTD., CO, License number: SCXK (Shanghai) 2003-0002 The right amount of compounds were weighted and grinded with 0.5% Sodium Carboxymethyl cellulose uniformly, suspended them with 1% tween 80 to 2.5 mg/mL of suspension before use. […] 8 Healthy adult adult SD rats, male and female in half, were divided into 2 groups. After an overnight fast, the rats were administered intragastrically at a dose of 25.0 mg/kg. […] The plasma samples were stored at −20° C. until analysis. The rats were fed 2 hours after administration. 50 μL of rat plasmas taken at various time points after administration were mixed with 50 μL of standard series solution to obtain plasma concentration of 50.0, 100, 200, 500, 1000, 2000, 5000 ng/mL. 150 μL methanol was added and then the mixture was mixed for 3 minute using a vortexer and centrifuged for 10 minutes at 13,500 rpm. 10 μL of the supernatant was analyzed by LC-MS/MS. The main pharmacokinetic parameters were caculated by DAS 2.0 software.

Series [2] has as its system xenografts of Calu-3 human lung cancer. The series is described as follows: Therapeutic effects against xenografts of Calu-3 human lung cancer in nude mice. The series is classed as in vivo, BALB/cA-nude mice. The conditions noted are these: for tolerance of the mice: present administration protocol. The procedure:
BALB/cA-nude mice, 6 to 7 weeks old, ♀, purchased from Slaccas Experimental Animal LTD., CO.
Nude mice were hypodermic inoculated Calu-3 human lung cancer cell. After tumors grew to 150-250 mm^3, mice were randomly divided into teams (d0).
The volume of tumors and the weigh of the mice were measured and recorded for 2-3 times per week.
The calculation formula of the volume of tumor (V) is: V=½×a×b^2, a: length of tumor, b: width of tumor.

For series [3], the system named is human epidermoid carcinoma A431 cells. The series is described as follows: EGFR Cell Proliferation Inhibition Assay (SRB method, 72 hours). The series is classed as cell-based. The conditions noted are these: A-431. An excerpt:
The activity is represented by the IC50 value. The general procedures of the assay are given as follows: The cancer cells A431 that highly expressing EGFR (Institute of biochemistry and cell biology) were chosen and seeded to 96-well cell culture plate at a suitable concentration (e.g., 5000 cells/mL medium). […] Then, the cell culture medium was replaced by fresh one with tested compounds added in it at serial concentrations (general 6 to 7 concentrations). Then the cells were put back to the incubator and cultured continuously. 72 hours later, the activity of the tested compounds for inhibiting the cell proliferation was determined by using Sulforhodamine B (SRB) method. IC50 value on tested cells are calculated by the data of inhibition rates of serial concentrations of the tested compounds.

Another series addresses EGFR kinase (Homo sapiens (Human), UniProt P00533). Put plainly: EGFR Kinase Activity Assay (Time-Resolved fluorescence). The series is classed as biochemical. The conditions noted are these: human-derived recombinant EGFR kinase, 20 μM ATP, 25° C., 45 minutes; read-out: IC50 (EGFR/BIO). The procedure: The in vitro EGFR kinase activity was tested by the following assay.
The following assay may be used to determine the activity of the compounds of the invention for inhibiting EGFR kinase activity. […] EGFR kinase used in this assay is a human-derived recombinant protein (Cell signaling technology, #7908), which was reacted with peptide substrate and different concentrations of tested compounds in a buffer solution containing 60 mM HEPES (pH7.5), 5 mM MgCl2, 5 mM MnCl2, 3 μM Na3VO4, […] (1000×) and 20 μM ATP at 25° C., for 45 minutes. The EGFR kinase activity was determined by using a Time-Resolved fluorescence method.

[4] abbreviates: high dose (200 mg/kg), Calu-3 xenografts.
[5] abbreviates: low dose (100 mg/kg), Calu-3 xenografts.

Chain of EGFR kinase (P00533 25-1210): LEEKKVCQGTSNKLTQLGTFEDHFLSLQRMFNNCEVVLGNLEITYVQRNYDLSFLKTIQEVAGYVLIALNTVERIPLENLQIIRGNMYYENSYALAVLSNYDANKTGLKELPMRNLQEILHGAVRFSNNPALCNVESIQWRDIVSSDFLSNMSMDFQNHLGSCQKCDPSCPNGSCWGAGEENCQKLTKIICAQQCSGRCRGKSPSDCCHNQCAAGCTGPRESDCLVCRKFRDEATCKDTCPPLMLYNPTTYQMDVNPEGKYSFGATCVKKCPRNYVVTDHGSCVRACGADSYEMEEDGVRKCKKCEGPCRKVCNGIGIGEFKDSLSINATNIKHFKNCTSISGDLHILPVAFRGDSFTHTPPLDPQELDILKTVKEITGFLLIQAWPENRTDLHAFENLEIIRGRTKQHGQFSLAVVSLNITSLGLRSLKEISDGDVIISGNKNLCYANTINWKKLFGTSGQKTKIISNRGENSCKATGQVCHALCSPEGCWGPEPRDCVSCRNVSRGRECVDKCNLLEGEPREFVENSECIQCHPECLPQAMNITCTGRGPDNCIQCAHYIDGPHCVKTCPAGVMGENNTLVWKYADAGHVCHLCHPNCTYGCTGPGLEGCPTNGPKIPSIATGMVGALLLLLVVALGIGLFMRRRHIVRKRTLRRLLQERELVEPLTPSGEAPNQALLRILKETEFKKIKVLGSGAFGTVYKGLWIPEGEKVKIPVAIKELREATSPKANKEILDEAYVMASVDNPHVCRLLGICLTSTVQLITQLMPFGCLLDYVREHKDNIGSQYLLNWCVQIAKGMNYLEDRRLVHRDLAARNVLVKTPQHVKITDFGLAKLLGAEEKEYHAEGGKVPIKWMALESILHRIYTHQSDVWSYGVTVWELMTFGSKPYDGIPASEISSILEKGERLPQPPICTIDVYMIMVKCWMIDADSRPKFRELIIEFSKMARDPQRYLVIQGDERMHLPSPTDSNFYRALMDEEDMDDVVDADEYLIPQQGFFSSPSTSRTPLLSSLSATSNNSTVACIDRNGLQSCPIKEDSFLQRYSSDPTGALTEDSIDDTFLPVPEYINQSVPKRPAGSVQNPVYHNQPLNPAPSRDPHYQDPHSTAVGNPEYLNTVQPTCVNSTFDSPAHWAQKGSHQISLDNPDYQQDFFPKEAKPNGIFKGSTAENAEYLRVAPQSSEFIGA

As for `CCOc1cc2ncc(C#N)c(Nc3ccc(OCc4ccccn4)c(Cl)c3)c2cc1NC(=O)/C=C/[C@@H]1CCCN1C` [Example 1, (E)-N-[4-[[3-Chloro-4-(2-pyridylmethoxy)phenyl]amino]-3-cyano-7-ethoxy-6-quinolyl]-3-[(2S)-1-methylpyrrolidin-2-yl]prop-2-enamide], in series [1], the Vd/F came out at 3.71 ± 1.68 L/kg, the CL/F was 12.7 mL/min/kg, the half-life is 4.04 ± 1.39 h and the Cmax was found to be 4480 ± 1880 ng/mL. Moreover, in series [1] (read-out: Mean Residence Time MRT), the MRT is 7.78 ± 1.89 h. In series [2] (Calu-3 xenografts), the “inhibition of the growth of Calu-3 human lung cancer (in words)” value is “markedly inhibited”. In series [2] (setting [4]), the “completely degraded tumor (fraction of tumors)” value was 1/6 and the “reduced tumor volume (fraction of tumors)” value is 1/6. The “reduced tumor volume (fraction of tumors)” value in series [2] (setting [5]) is given as 2/6. Besides, the “tolerance of the mice” value in series [2] was “well tolerant”.

Consider `CCOc1cc2ncc(C#N)c(Nc3ccc(OCc4ccccn4)c(Cl)c3)c2cc1NC(=O)/C=C/[C@@H]1CCCN1` [Example 2, (E)-N-[4-[[3-Chloro-4-(2-pyridylmethoxy)phenyl]amino]-3-cyano-7-ethoxy-6-quinolyl]-3-[(2S)-pyrrolidin-2-yl]prop-2-enamide], for which the IC50 in series [3] worked out at 3 nM; on EGFR kinase, 6 nM.

On to `CCOc1cc2ncc(C#N)c(Nc3ccc(OCc4ccccn4)c(Cl)c3)c2cc1NC(=O)/C=C/[C@@H]1C[C@@H](O)CN1C` [Example 3, (E)-N-[4-[[3-Chloro-4-(2-pyridylmethoxy)phenyl]amino]-3-cyano-7-ethoxy-6-quinolyl]-3-[(2S,4R)-4-hydroxy-1-methyl-pyrrolidin-2-yl]prop-2-enamide], for which the IC50 in series [3] was determined as 36 nM; on EGFR kinase, 59 nM.

For the compound `CCOc1cc2ncc(C#N)c(Nc3ccc(OCc4ccccn4)c(Cl)c3)c2cc1NC(=O)/C=C/[C@H]1CCCN1C` [Example 5, (E)-N-[4-[[3-Chloro-4-(2-pyridylmethoxy)phenyl]amino]-3-cyano-7-ethoxy-6-quinolyl]-3-[(2R)-1-methylpyrrolidin-2-yl]prop-2-enamide], in series [1], the Vd/F was 2.6 ± 0.94 L/kg, the CL/F is 8.83 mL/min/kg, the half-life is 3.4 ± 0.45 h and the Cmax was found to be 6470 ± 1810 ng/mL. In addition, the “reduced tumor volume (fraction of tumors)” value in series [2] (setting [4]) is recorded as 4/6. In addition, the “reduced tumor volume (fraction of tumors)” value in series [2] (setting [5]) is 3/6. The “tolerance of the mice” value in series [2] was “well tolerant”.

Regarding `CCOc1cc2ncnc(Nc3ccc(F)c(Cl)c3)c2cc1NC(=O)/C=C/[C@@H]1CCCN1C` [Example 7, (E)-N-[4-[(3-Chloro-4-fluoro-phenyl)amino]-7-ethoxy-quinazolin-6-yl]-3-[(2S)-1-methylpyrrolidin-2-yl]prop-2-enamide], the IC50 at EGFR kinase is 4 nM.

Regarding `CCOc1cc2ncnc(Nc3ccc(F)c(Cl)c3)c2cc1NC(=O)/C=C/[C@H]1CCCN1C` [Example 9, (E)-N-[4-[(3-Chloro-4-fluoro-phenyl)amino]-7-ethoxy-quinazolin-6-yl]-3-[(2R)-1-methylpyrrolidin-2-yl]prop-2-enamide], the IC50 in series [3] was found to be 8 nM; on EGFR kinase it was 2 nM.

Values taken from patent US8901140B2, “6-amino quinazoline or 3-cyano quinoline derivatives, preparation methods and pharmaceutical uses thereof” (Jiangsu Hengrui Medicine Co., Ltd., priority 2009, dated 2014).
